Legend:
Assay type in all cases: cell-based, human
[1] = test system: IPF HBECs; assay: Gene expression of ERBB receptors, YAP target genes and MUC5B in IPF HBECs; conditions: IPF HBECs after inhibition
Protocol: Quantitative RT-PCR Analysis: Total RNA was extracted using RNeasy® Mini kit (Qiagen, Hilden, Germany) and quantified by NanoDrop™ (ThermoFisher Scientific™, Waltham, Massachusetts).Reverse transcription was completed using the High Capacity cDNA Reverse Transcription Kit (Applied Biosystems™, Thermo Fisher Scientific™, Waltham, Massachusetts). Gene expression was analyzed by using TaqMan® Advanced Master Mix (Thermo Fisher Scientific™, Waltham, Massachusetts and TaqMan® assays. They were subsequently run in triplicate on the ViiA™ 7 Real-Time machine (Thermo Fisher Scientific™, Waltham, Massachusetts). Primer IDs were: β-ACTIN, Hs01060665_g1; MUC5B, Hs00861595_m1; MUC5AC, Hs01365616_m1; EGFR, Hs0176090_m1; ERBB2, Hs01001580_m1; ZEB1, Hs00232783_m1; SNAI1, Hs00195591_m1; VIM, Hs00185584_m1; CTGF, Hs00170014_m1; AREG, Hs00950669_m1; FN1, Hs01549976_m1; PDGFRA, Hs00998018_m1; PDGFA, Hs00234994_m1; PDGFRB, Hs01019589_m1; PDGFB, Hs00966522_m1; TGFBRI, Hs00610320_m1; TGFBI, Hs00998133_m1; COL1A1, Hs00164004_m1; ACTA2, Hs00426835; MMP3, Hs00968305_m1; MMP9, Hs00957562_m1; TIMP1, Hs01092512_g1; and TIMP2, Hs00234278_m1.

[2] = test system: COPD HBECs; assay: Induction of jamming in COPD HBECs
Excerpt: (§1) Epithelial Cell Culture: Primary human bronchial epithelial cells (HBECs) were obtained from two sources (1) provided by Dr. Hong Wei Chu at National Jewish Health, or (2) lung transplant collection at the University of Colorado Hospital (IRB protocol: 11-1664 or 18-0572). Epithelial cells from bronchial brushes or CT-guided dissection were expanded to passage 2 before being cultured at air liquid interface (ALI). Control (N=11), IPF (N=6), and COPD (N=3) were age matched and controls had no history of chronic lung disease (Table 1). Cells were seeded on 24-Transwell plates (Corning, Corning, New York, 3470) coated with type I collagen (Corning, Corning, New York, 354236) and maintained under submerged conditions for five to seven days until the cells reached confluence. Culture media was a 1:1 mixture of DMEM and BEBM (Lonza, Basel, Switzerland, CC170) supplemented with retinoic acid (Sigma-Aldrich, Germany, R-2625) nystatin (Sigma-Aldrich, Germany N1638), and bovine serum albumin (FisherSci, Thermo Fisher Scientific, Waltham, Massachusetts BP9703100). Once confluent, apical media was removed and maintained at ALI. HBECs began recapitulating the in vivo airway, with production of mucus (6-9 days after establishing ALI) and development of a pseudostratified epithelium. Cells were switched to a starvation media (lacking supplemental epidermal growth factor, hydrocortisone, and bovine pituitary extract) 24 hours prior to experimentation.
For inhibitor, activator, and ligand treatments HBECs were cultured in a starvation media in the absence of EGF, hydrocortisone, and bovine pituitary extract for 24 hours prior to treatment initiation. Cells were then treated for 2-4 hours (with exception of AREG neutralizing antibody which was maintained in the culture media), media was aspirated, the wells were washed with warm PBS and then replaced with fresh starvation media without inhibitor/activator/ligand present, and subsequently imaged. For experiments that required subsequent media changes (96 hour) cells fresh starvation media was changed 48 hours afterwards. […]

[3] = test system: IPF HBECs; assay: YAP immunofluorescence in IPF HBECs; conditions: IPF HBECs 48 hours after treatment
Protocol: (§2) Immunofluorescence staining: Cells were fixed with 4% paraformaldehyde in PBS with calcium and magnesium for 30 minutes at room temperature. Cells were then washed with PBS and subsequently permeabilized (Triton™-X, at 0.1%) and blocked with 5% bovine serum albumin in PBS for 1 hour at room temperature. Cells were then incubated for >16 hours at 4 degrees with primary antibodies. Primary antibodies were aspirated, and cells were washed with PBS+0.1% Tween-20 at room temperature. Cells were then incubated for 1 hour at room temperature with secondary antibodies (1:500) and/or Phalloidin-iFluor™ 488 1:2000. Cells were stained with 4′,6-diamidino-2-phenylindole at 1:20000 (BioLegend®, San Diego, California, 422801). Subsequently, transwell membranes, or hydrogels, were removed from the well and mounted on glass slides with Fluoromount-G® (SouthernBiotech™, Birmingham, Alabama, 0100-01). Slides were then visualized using an Olympus BX63 microscope (Olympus, Tokyo, Japan).
(§3) Immunofluorescence and cell number quantification for HBEC experiments: For total fluorescence quantification (i.e., ERBB2), all images were processed in the same manner with the same microscopy settings. To determine mean fluorescence the channel of interest was separated in ImageJ, and the mean gray value was measured for the field of view and normalized by the total number of cells. Cell counting was achieved by taking 40×images and manually counting all nuclei in a field of view (approximately 200-300). The number of cells also expressing the marker of interested were then counted and normalized by the total number of cells per field. For each experiment a biological n≥3 was used with at least 5 fields of view per well and at least 2 wells being counted in total per donor.

[4] = test system: IPF HBECs; assay: Induction of the unjammed-to-jammed transition (UJT) in IPF HBECs; conditions: day 14 IPF HBECs
Excerpt: as §1
(§4) For inhibitor, activator, and ligand treatments HBECs were cultured in a starvation media in the absence of EGF, hydrocortisone, and bovine pituitary extract for 24 hours prior to treatment initiation. Cells were then treated for 2-4 hours (with exception of AREG neutralizing antibody which was maintained in the culture media), media was aspirated, the wells were washed with warm PBS and then replaced with fresh starvation media without inhibitor/activator/ligand present, and subsequently imaged. For experiments that required subsequent media changes (96 hour) cells fresh starvation media was changed 48 hours afterwards.
(§5) Live Cell Imaging and Dynamics Measurement: To assess cellular dynamics, time-lapse microscopy and subsequent analysis were completed. Two imaging schemes were utilized: (1) images were taken every 5 minutes for 200 minutes during HBEC differentiation; (2) images were taken every 20 minutes for 48, 96, or 144 hours after HBEC experimental intervention. Phase contrast images were acquired on a Keyence BZ-X810 with a stage incubator (37° C., 5% CO2). Dynamic analysis followed previously published workflows (10-12, 22). Briefly, using phase contrast images instantaneous velocities were mapped by particle image velocimetry utilizing open source PIVLab on MATLAB. Velocity fields were obtained with 2 passes (64×64 and 32×32 pixel size interrogation window with 50% overlap) with a pixel size of 0.75488 μm using a Fast Fourier Transformation method. Trajectories from the PIV were seeded onto a grid and obtained via forward-integration of subsequent fields. These values were then used to determine mean-squared-displacement (MSD) and self-overlap order parameter (Q): MSD(Δt)= ? ri(t+Δt)−ri(t)|2 ? and Q(Δt)=N−1ΣwiNi=1 as previously published. Instantaneous room mean squared velocity (VRMS) of the monolayer was obtained as previously published: VRMS(t)=√1MΣ ? |v(t)2 ? jMj=1
(§6) Cell Shape Analysis: Cell shape measurements were achieved via cell border delineation by F-actin immunofluorescence. Images were segmented utilizing SeedWater Segmenter. Similar to previously published workflows, we segmented images which were subsequently analyzed in ImageJ for the shape index (q=Perimeter√Area) and aspect ratio (major and minor axis) for all cells within a given field of view. For each experimental condition an n≥3 was used with at least 3 independent wells per donor per treatment condition. […]

[5] = test system: control HBECs; assay: Induced unjamming of control HBECs at air-liquid interface (live cell imaging, cell shape); conditions: for ability to induce an unjammed state in control epithelia: control HBECs at ALI day 14; for induction of unjammed state in mature monolayer: control HBECs treated at ALI day 28; for time at which migratory capacity of control epithelia begins to diminish: treatment at day 14 of ALI
Excerpt: as §1, §4, §5, §6

[6] = test system: control HBECs; assay: Immunofluorescence of Ki67 and YAP in control HBECs; conditions: for cell type showing YAP nuclear localization: control HBECs after treatment; for YAP nuclear localization / proliferation (Ki67+): control HBECs, 48 hours after treatment
Protocol: as §2, §3

[7] = test system: control HBECs; assay: Barrier function (TEER) of control HBECs
Protocol: Barrier function measurements: The transepithelial electrical resistance (TEER) was assessed utilizing the Millicell® ERS-2 Voltohmeter (MilliporeSigma™, Burlington, Massachusetts, MERS00002). Briefly, cells were incubated with PBS with calcium and magnesium (at 37 degrees for 20 minutes prior to barrier measurement). The probe was inserted, and the resultant ohm reading was recorded. The final value was calculated by:
This value was subtracted by 100 (the resistance of a blank well) and multiplied by 0.33 (the surface area of a single well in a 24 well plate). A minimum of 3 wells were recorded per donor per treatment condition. These values were subsequently averaged per treatment and graphed.

[8] = control HBECs by MUC5B promoter variant status

Compound | transcription of ERBB receptors, YAP target genes and MUC5B [1] | YAP nuclear exclusion [3] | induction of the UJT (jamming) in IPF epithelia [4] | ability to induce an unjammed state in control epithelia [5] | also measured
COc1cc2ncnc(Nc3cccc(Cl)c3)c2cc1OC [AG1478, Tyrphostin AG-1478] | reduced the transcription of ERBB receptors, YAP target genes, and MUC5B nearly back to control levels | results in YAP nuclear exclusion | halted migration and induced a cobblestone appearance in the epithelia |  | induction of jamming in COPD epithelia [2]: not responsive to ERBB-YAP inhibition
C#Cc1cccc(Nc2ncnc3cc(OCCOC)c(OCCOC)cc23)c1 [Erlotinib] | decreases 738 ERBB-YAP target gene expression | results in YAP nuclear exclusion | induces jamming in IPF epithelia |  | 
CNc1nc(-c2ccc3c(N)n[nH]c3c2)cc(N2C[C@@H](C(=O)NC3CCCCC3)CC[C@H]2C)n1 [GSK2334470] |  | results in YAP nuclear exclusion | induces jamming in IPF epithelia |  | 
CS(=O)(=O)CCNCc1ccc(-c2ccc3ncnc(Nc4ccc(OCc5cccc(F)c5)c(Cl)c4)c3c2)o1 [Lapatinib] | decreases 738 ERBB-YAP target gene expression | results in YAP nuclear exclusion | induces jamming in IPF epithelia |  | 
NC1(c2ccc(-c3nc4ccn5c(=O)[nH]nc5c4cc3-c3ccccc3)cc2)CCC1 [MK-2206] |  |  | did not induce the UJT |  | 
FC(F)(F)c1ccc(/C=C/c2nc(COc3ccc(CCCCn4ccnn4)cc3)co2)cc1 [Mubritinib] | decreases 738 ERBB-YAP target gene expression | results in YAP nuclear exclusion | induces jamming in IPF epithelia |  | 
NCC(=O)Nc1ccc(-n2nc(C(F)(F)F)cc2-c2ccc3c(ccc4ccccc43)c2)cc1 [OSU03012, OSU-03012] | decreases 738 ERBB-YAP target gene expression | results in YAP nuclear exclusion | induces jamming in IPF epithelia |  | induction of jamming in COPD epithelia [2]: not responsive to ERBB-YAP inhibition
CN1CCN(c2nc(C3=C(c4c[nH]c5ccccc45)C(=O)NC3=O)c3ccccc3n2)CC1 [Sotrastaurin] |  |  | did not induce the UJT |  | 
CN1C(=O)c2sccc2N(C)c2nc(Nc3ccc(S(N)(=O)=O)cc3)ncc21 [XMU-MP-1] |  |  |  | had the ability to elicit an unjammed state | induction of unjammed state in mature monolayer [5]: unjammed state was induced regardless of monolayer maturity; time at which migratory capacity of control epithelia begins to diminish [5]: ~36 h; cell type showing YAP nuclear localization [6]: predominantly in multi-ciliated cells (FOXJ1+); YAP nuclear localization [6]: did lead to YAP nuclear localization; proliferation (Ki67+) [6]: neither AREG nor XMU treatment resulted in increased proliferation
AREG: Recombinant amphiregulin, low affinity EGFR ligand (R&D Systems 262-AR) |  |  |  | only AREG treatment had the ability to induce an unjammed state | persistence in the unjammed state, rs35705950 GT vs GG epithelia [5, 8]: persisted in the unjammed state significantly longer than GG epithelia; root-mean-squared velocity, rs35705950 GT vs GG epithelia [5, 8]: higher root-mean-squared velocity than their GG counterparts; induction of unjammed state in mature monolayer [5]: unjammed state was induced regardless of monolayer maturity; time at which migratory capacity of control epithelia begins to diminish [5]: ~36 h; barrier function in genotype-dependent unjamming ([7]; control HBECs GG or GT): did not alter barrier function; barrier function (TEER) after treatment ([7]; control HBECs at ALI day 14): without diminishing barrier function; cell type showing YAP nuclear localization [6]: predominantly in multi-ciliated cells (FOXJ1+); YAP nuclear localization [6]: did lead to YAP nuclear localization; proliferation (Ki67+) [6]: neither AREG nor XMU treatment resulted in increased proliferation
EGF: High-affinity EGFR ligand, EGFR agonist (R&D Systems 263-EG) (NSDSECPLSHDGYCLHDGVCMYIEALDKYACNCVVGYIGERCQYRDLKWWELR; Epidermal growth factor; UniProt P01133 971-1023, looked up) |  |  |  | only AREG treatment had the ability to induce an unjammed state | 
TGFα: High-affinity EGFR ligand, EGFR agonist (R&D Systems 239-A-100) |  |  |  | only AREG treatment had the ability to induce an unjammed state | 

Source: patent US11933781B2, “Fibrosis model and methods of use thereof” (The Regents of the University of Colorado, priority 2020, dated 2024)
